From US6013673A, “Naphthyloxy acetic acid derivatives” (Ono Pharmaceutical Co., Ltd., priority 1994, dated 2000)

Target: T1, prostanoide receptor subtype (mouse EP3 α) (Mus musculus, UniProt P30557)
T1 construct: expressed in transfected cells; host or cells: CHO cells (membrane fraction)
T1 sequence (P30557 1-365): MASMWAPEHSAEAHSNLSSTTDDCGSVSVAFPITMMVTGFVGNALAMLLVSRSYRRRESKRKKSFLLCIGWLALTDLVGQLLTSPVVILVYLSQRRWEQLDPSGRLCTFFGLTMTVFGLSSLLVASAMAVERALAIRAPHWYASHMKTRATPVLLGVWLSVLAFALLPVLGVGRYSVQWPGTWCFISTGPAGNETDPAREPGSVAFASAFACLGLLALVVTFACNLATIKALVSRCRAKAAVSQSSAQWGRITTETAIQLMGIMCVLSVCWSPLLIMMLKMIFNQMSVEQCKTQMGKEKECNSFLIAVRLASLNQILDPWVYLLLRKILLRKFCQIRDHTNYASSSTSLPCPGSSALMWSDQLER
Experiment: Binding assay using expression cell of prostanoide receptor subtype ([3H]-PGE2 competition)
Conditions: membrane fraction of CHO cells expressing mouse EP3 α; 2.5 nM [3H]-PGE2; 1 hour, room temperature; buffer pH6.0; Ki=IC50/(1+([C]/Kd)); read-out: Ki (dissociation constant)
Experimental: For example, in standard laboratory test, the effects of the compounds of the present invention were confirmed by inhibitory effect on binding PGE2 using expression cell of mouse receptor.
Binding Assay Using Expression Cell of Prostanoide Receptor Subtype
The preparation of membrane fraction was carried out according to the method of Sugimoto et al [J. Biol. Chem. 267, 6463-6466(1992)], using expression CHO cell of prostanoide receptor subtype (mouse EP3 α).
The standard assay mixture contained membrane fraction (0.5 mg/ml), [^3 H]-PGE2 in a final volume of […] was incubated for 1 hour at room temperature. The reaction was terminated by addition of 3 ml of ice-cold buffer. The mixture was rapidly filtered through a glass filter (GF/B). The radioactivity associated with the filter was measured by liquid scintillation counting.
Kd and Bmax values were determined from Scatchard plots [Ann. N.Y. Acad. Sci., 51, 660(1949)]. Non-specific binding was calculated as the bond in the presence of an excess ([…]) of unlabeled PGE2. In the experiment for competition of specific [^3 H]-PGE2 binding by the compounds of the present invention, [^3 H]-PGE2 was added at a concentration of 2.5 nM and the compounds of the present invention were at a concentration of 1 mM.
The following buffer was used in all reactions.
Buffer: 10 mM potassium phosphate (pH6.0), 1 mM EDTA, 10 mM MgCl2, 0.1 M NaCl
The dissociation constant (Ki) of each compound was calculated by the following equation.

| Ki [nM] | SMILES |
| --- | --- |
| 1300 | O=C(COc1cccc2c(CCC(=O)NC(c3ccccc3)c3ccccc3)cccc12)NCCO [Example 4b, N-(2-hydroxyethyl)-[5-(2-diphenylmethylaminocarbonylethyl)naphthyl-1-oxy]acetic Acid Amide] |
| 26 | O=C(CCc1cccc2c(OCCO)cccc12)NC(c1ccccc1)c1ccccc1 [Example 3, 2-[5-(2-diphenylmethylaminocarbonylethyl)naphthyl-1-oxy]ethanol] |
| 11 | O=C(O)COc1cccc2c(CCC(=O)NC(c3ccccc3)c3ccccc3)cccc12 [Example 2, [5-(2-diphenylmethylaminocarbonylethyl)naphthyl-1-oxy]acetic Acid] |
| 5700 | COC(=O)COc1cccc2c(CCC(=O)NC(c3ccccc3)c3ccccc3)cccc12 [Example 1, [5-(2-diphenylmethylaminocarbonylethyl)naphthyl-1-oxy]acetic Acid Methyl Ester] |
| 830 | C[C@@H](NC(=O)CCc1cccc2c(OCC(=O)O)cccc12)c1ccccc1 [Example 2k, [5-[2-((1R)-1-phenylethyl)aminocarbonylethyl]naphthyl-1-oxy]acetic Acid] |
| 200 | CN(C)C(=O)COc1cccc2c(CCC(=O)NC(c3ccccc3)c3ccccc3)cccc12 [Example 4a, N,N-dimethyl-[5-(2-diphenylmethylaminocarbonylethyl)naphthyl-1-oxy]acetic Acid Amide] |
| 68 | O=C(O)COc1cccc2c(CCNC(=O)C(c3ccccc3)c3ccccc3)cccc12 [Example 8, [5-[2-(diphenylmethylcarbonylamino)ethyl]naphthyl-1-oxy]acetic Acid] |
| 50 | O=C(O)COc1cccc2c(CC(=O)NC(c3ccccc3)c3ccccc3)cccc12 [Example 2d, [5-(diphenylmethylaminocarbonylmethyl)naphthyl-1-oxy]acetic Acid] |
| 890 | C[C@H](NC(=O)CCc1cccc2c(OCC(=O)O)cccc12)c1ccccc1 [Example 2l, [5-[2-((1S)-1-phenylethyl)aminocarbonylethyl]naphthyl-1-oxy]acetic Acid] |
| 23 | NC(=O)COc1cccc2c(CCC(=O)NC(c3ccccc3)c3ccccc3)cccc12 [Example 4, [5-(2-diphenylmethylaminocarbonylethyl)naphthyl-1-oxy]acetic Acid Amide] |
| 110 | O=C(O)COc1cccc2c(CCC(=O)NN(c3ccccc3)c3ccccc3)cccc12 [Example 2a, [5-[2-(3,3-diphenylcarbazoyl)ethyl]naphthyl-1-oxy]acetic Acid] |
